{"source": "BindingDB's records for patent US9212173", "about": "(Genentech, 2015)", "target": "Leucine-rich repeat serine/threonine-protein kinase 2 (Homo sapiens, UniProt Q5S007)", "sequence (Q5S007 whole entry)": "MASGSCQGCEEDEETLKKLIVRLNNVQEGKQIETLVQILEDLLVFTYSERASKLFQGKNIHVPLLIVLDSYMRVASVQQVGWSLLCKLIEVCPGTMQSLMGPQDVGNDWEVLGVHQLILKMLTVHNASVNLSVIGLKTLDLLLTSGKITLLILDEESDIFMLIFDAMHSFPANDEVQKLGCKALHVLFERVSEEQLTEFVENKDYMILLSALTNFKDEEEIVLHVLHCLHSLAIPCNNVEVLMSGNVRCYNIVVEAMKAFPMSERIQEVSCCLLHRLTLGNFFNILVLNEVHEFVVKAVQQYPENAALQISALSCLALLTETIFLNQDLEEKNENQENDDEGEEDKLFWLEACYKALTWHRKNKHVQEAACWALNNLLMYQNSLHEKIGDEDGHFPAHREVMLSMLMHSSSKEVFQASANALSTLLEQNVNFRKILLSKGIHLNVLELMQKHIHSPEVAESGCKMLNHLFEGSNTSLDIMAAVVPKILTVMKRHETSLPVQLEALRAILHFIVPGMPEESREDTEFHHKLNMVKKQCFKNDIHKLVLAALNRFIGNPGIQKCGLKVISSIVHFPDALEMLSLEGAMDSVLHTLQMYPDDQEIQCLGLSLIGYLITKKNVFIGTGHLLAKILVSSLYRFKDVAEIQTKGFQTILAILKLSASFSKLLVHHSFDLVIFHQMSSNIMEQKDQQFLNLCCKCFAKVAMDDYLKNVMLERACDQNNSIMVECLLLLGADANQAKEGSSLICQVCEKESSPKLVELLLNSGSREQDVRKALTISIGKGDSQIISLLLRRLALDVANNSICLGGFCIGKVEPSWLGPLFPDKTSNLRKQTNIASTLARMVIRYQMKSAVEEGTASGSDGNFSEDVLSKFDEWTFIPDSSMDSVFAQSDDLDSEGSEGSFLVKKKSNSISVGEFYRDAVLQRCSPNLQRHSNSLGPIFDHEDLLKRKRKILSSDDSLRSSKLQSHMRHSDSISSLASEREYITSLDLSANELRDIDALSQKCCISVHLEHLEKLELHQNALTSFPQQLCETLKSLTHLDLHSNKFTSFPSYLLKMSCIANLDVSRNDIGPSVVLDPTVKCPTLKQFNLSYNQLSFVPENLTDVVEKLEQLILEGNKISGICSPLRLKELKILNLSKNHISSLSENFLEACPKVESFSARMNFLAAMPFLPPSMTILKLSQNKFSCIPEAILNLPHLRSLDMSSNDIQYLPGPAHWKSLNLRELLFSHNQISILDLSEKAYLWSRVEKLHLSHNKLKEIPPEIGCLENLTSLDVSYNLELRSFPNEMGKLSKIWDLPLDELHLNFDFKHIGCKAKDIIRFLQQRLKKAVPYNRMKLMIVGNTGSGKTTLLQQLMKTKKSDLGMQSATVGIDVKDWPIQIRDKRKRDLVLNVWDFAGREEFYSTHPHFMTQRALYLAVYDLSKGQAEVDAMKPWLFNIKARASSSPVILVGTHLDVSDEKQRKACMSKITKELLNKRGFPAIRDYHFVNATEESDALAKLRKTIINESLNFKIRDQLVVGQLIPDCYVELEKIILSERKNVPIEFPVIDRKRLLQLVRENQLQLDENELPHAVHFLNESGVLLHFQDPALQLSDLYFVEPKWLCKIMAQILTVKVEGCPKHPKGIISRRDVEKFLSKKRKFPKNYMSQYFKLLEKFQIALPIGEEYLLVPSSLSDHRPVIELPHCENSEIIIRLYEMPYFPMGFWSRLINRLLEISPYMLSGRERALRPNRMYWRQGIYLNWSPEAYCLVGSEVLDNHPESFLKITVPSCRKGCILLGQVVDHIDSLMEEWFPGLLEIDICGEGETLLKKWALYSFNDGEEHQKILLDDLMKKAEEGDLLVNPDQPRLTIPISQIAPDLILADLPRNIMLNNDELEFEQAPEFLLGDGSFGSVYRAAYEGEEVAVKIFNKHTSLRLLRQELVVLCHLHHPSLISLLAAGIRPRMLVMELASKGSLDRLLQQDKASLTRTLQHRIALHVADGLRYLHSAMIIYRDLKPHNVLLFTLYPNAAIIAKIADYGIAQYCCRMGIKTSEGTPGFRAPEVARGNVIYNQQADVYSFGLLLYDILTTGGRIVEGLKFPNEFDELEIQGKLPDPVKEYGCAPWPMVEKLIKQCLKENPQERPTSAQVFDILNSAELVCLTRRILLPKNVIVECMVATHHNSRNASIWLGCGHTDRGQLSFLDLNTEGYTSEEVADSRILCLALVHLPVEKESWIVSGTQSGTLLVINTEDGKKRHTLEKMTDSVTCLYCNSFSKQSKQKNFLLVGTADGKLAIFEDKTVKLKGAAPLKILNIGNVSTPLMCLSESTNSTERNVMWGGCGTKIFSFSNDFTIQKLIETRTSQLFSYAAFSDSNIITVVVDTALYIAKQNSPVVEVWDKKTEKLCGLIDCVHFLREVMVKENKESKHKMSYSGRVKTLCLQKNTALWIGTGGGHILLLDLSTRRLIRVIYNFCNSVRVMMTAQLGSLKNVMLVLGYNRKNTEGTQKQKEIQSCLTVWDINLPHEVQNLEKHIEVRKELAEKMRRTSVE", "test": "Lanthascreen Binding Assay", "description": "This assay was used to determine a compound's potency in inhibiting activity of LRRK2 by determining, Kiapp, IC50, or percent inhibition values. In 384 well proxiplates F black, shallow well plates LRRK2, Eu-anti-GST-antibody, Alexa Fluor Kinase tracer 236 and test compound were incubated together.Binding of the Alexa Fluor tracer to a kinase is detected by addition of a Eu-labeled anti-GST antibody. Binding of the tracer and antibody to a kinase results in a high degree of FRET, whereas displacement of the tracer with a kinase inhibitor results in a loss of FRET. Assay conditions and materials used were as follows: Final Assay Conditions: GST-LRRK2 G2019S 10 nM Eu-anti-GST-antibody 2 nM Kinase tracer 236 8.5 nM Kinase reaction time: 1 hour Temperature: ambient Total volume: 15 ul DMSO 1% Materials: 384 well proxiplates F black shallow cat# 6008260 well Perkin Elmer Kinase: LRRK2 G2019S, Invitrogen cat # PV4882(LOT 567054A)."}
{"smiles": "CCn1cnnc1C(C)(C)n1cc(Nc2ncc(C(F)(F)F)c(NC)n2)c(Cl)n1", "note": "[US9212173, 11]", "values": [{"measurement": "Ki", "result": 155, "unit": "nM"}]}
{"smiles": "CCNc1nc(Nc2cn(C(C)(C)c3ncn(CC)n3)nc2Cl)ncc1C(F)(F)F", "note": "[US9212173, 14]", "values": [{"measurement": "Ki", "result": 1.1, "unit": "nM"}]}
